Data from ChEMBL document CHEMBL1158197, “A new prenylated flavonol from the root of Petalostemon purpureus” (1996).
Values after ≈ are worked out from the molar mass of the structure shown. Active and inactive are the calls of the source. The rule behind the calls is not given here.

Key:
[1] = system: Betapolyomavirus macacae; experiment: Induction of DNA-strand scission activity in SV40 form 1 DNA at 25 ug/mL
[2] = Cytotoxicity against human BC1 cells; format: functional; conditions: read-out: ED50 (the source's name)
[3] = system: HT; experiment: Cytotoxicity against human HT cells; format: functional; conditions: read-out: ED50 (the source's name)
[4] = system: Lu1; experiment: Cytotoxicity against human Lu1 cells; format: functional; conditions: read-out: ED50 (the source's name)
[5] = system: SK-MEL-2; experiment: Cytotoxicity against human SK-MEL-2 cells; format: functional; conditions: read-out: ED50 (the source's name)
[6] = system: Col2; experiment: Cytotoxicity against human Col2 cells; format: functional; conditions: read-out: ED50 (the source's name)
[7] = system: KB; experiment: Cytotoxicity against human KB cells; format: functional; conditions: read-out: ED50 (the source's name)
[8] = Cytotoxicity against human KBVIN cells in presence of vinblastine; format: functional; conditions: read-out: ED50 (the source's name)
[9] = Cytotoxicity against human KBVIN cells in absence of vinblastine; format: functional; conditions: read-out: ED50 (the source's name)
[10] = system: A-431; experiment: Cytotoxicity against human A431 cells; format: functional; conditions: read-out: ED50 (the source's name)
[11] = system: LNCaP; experiment: Cytotoxicity against human LNCAP cells; format: functional; conditions: read-out: ED50 (the source's name)
[12] = system: ZR-75-1; experiment: Cytotoxicity against human ZR-75-1 cells; format: functional; conditions: read-out: ED50 (the source's name)
[13] = Cytotoxicity against human U373 cells; format: functional, U-373MG ATCC; conditions: U373 MG, read-out: ED50 (the source's name)
[14] = system: Betapolyomavirus macacae; experiment: Induction of DNA-strand scission activity in SV40 form 1 DNA at 0.1 ug/mL

Row | Activity [1] | Activity [14] | Compound | EC50 [2] | EC50 [3] | EC50 [4] | EC50 [5] | EC50 [6] | EC50 [7] | EC50 [8] | EC50 [9] | EC50 [10] | EC50 [11] | EC50 [12] | EC50 [13]
1 | inactive |  | CC(C)=CCCC1(C)C=Cc2c(-c3oc4cc(O)cc(O)c4c(=O)c3O)ccc(O)c2O1 (configuration not stated) [PETALOPURPURENOL] | 9.9 µg/mL (≈ 22.7 µM) | 7.3 µg/mL (≈ 16.7 µM) | 14.8 µg/mL (≈ 33.9 µM) | 17.1 µg/mL (≈ 39.2 µM) | > 20 µg/mL | 18.9 µg/mL (≈ 43.3 µM) | 1 µg/mL | 6.7 µg/mL (≈ 15.4 µM) | 11.9 µg/mL (≈ 27.3 µM) | 14.8 µg/mL (≈ 33.9 µM) | 4.1 µg/mL (≈ 9.39 µM) | 13.3 µg/mL (≈ 30.5 µM)
2 | Active |  | CC(C)=CCc1cc(O)c(O)c(CC=C(C)C)c1[C@H]1Oc2c(CC=C(C)C)c(O)cc(O)c2C(=O)[C@@H]1O [PETALOSTEMUMOL] | > 20 µg/mL | 10.3 µg/mL (≈ 20.3 µM) | > 20 µg/mL | > 20 µg/mL | > 20 µg/mL | > 20 µg/mL | 1.2 µg/mL | > 20 µg/mL | > 20 µg/mL | > 20 µg/mL | 17.1 µg/mL (≈ 33.6 µM) | > 20 µg/mL
3 |  | Active | BLEOMYCIN SULFATE |  |  |  |  |  |  |  |  |  |  |  | 
